Laboratory results published in ChEMBL document CHEMBL4619804, “Target-Based Identification and Optimization of 5-Indazol-5-yl Pyridones as Toll-like Receptor 7 and 8 Antagonists Using a Biochemical TLR8 Antagonist Competition Assay” (J Med Chem, 2020).
pIC50, pKd: −log10 of the molar value.

Assays:
[1] = biological target: T1, Toll-like receptor 8 (Homo sapiens, UniProt Q9NR97); test: biochemical
T1 sequence (Q9NR97 whole entry): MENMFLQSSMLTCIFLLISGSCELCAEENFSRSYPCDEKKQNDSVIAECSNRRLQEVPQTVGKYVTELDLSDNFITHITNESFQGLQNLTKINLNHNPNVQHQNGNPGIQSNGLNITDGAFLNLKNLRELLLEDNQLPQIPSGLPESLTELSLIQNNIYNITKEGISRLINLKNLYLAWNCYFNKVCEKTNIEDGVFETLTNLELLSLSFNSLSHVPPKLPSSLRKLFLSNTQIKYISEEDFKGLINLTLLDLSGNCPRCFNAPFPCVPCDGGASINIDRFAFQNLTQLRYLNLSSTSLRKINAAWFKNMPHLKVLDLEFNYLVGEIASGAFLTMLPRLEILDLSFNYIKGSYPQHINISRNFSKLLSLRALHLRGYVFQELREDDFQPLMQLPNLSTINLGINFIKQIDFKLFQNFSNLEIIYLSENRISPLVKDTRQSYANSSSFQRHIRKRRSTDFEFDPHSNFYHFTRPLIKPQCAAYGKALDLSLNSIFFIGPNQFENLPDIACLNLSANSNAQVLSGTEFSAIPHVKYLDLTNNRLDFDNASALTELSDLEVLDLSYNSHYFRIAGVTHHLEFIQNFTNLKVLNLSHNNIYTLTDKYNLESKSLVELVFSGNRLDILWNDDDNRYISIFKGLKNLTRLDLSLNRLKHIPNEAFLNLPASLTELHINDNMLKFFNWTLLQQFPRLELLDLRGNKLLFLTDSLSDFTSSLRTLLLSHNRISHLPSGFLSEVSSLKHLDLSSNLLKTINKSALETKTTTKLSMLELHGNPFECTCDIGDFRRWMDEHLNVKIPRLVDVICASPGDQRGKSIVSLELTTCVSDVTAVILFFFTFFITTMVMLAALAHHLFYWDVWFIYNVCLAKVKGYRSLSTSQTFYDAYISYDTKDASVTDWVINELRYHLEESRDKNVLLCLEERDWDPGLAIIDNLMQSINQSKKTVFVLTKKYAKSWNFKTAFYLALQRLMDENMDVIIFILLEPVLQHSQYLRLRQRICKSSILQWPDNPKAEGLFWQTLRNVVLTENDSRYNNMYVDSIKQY

[2] = biological target: Toll-like receptor 4 (Homo sapiens, UniProt O00206); test: Antagonist activity at TLR4 in human PBMC assessed as inhibition of LPS-induced TNFalpha production preincubated for 30 mins followed by LPS addition and measured after 20 hrs by HTRF assay; format: cell-based
Chain of Toll-like receptor 4 (O00206 whole entry): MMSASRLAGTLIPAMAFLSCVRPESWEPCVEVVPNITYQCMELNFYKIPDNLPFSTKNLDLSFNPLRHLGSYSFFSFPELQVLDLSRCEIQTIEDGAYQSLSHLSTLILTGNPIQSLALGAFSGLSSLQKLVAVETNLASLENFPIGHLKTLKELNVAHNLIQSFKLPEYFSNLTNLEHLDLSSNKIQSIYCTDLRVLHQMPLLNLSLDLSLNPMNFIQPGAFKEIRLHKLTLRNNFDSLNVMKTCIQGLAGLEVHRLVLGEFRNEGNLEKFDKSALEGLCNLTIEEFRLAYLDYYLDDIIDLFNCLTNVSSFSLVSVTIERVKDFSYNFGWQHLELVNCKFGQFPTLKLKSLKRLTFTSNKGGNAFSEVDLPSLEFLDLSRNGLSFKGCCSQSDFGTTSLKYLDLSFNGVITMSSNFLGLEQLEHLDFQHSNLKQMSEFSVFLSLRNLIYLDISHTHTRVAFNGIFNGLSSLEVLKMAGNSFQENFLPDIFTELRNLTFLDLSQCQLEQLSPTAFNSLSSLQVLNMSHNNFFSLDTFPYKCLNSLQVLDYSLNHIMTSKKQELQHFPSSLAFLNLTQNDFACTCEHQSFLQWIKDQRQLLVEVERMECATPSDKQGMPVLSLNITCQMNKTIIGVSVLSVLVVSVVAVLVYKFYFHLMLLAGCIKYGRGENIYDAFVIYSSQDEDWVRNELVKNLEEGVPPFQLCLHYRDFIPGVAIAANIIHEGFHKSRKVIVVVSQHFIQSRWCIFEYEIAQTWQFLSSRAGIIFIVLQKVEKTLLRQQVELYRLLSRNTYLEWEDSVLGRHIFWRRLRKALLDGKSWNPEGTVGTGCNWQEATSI

[3] = biological target: T2, Toll-like receptor 9 (Homo sapiens, UniProt Q9NR96); test: Antagonist activity at TLR9 in human PBMC assessed as inhibition of ODN2216-induced IFNalpha production preincubated for 30 mins followed by ODN2216 addition and measured after 20 hrs by alphaLISA; format: cell-based
T2 sequence (Q9NR96 whole entry): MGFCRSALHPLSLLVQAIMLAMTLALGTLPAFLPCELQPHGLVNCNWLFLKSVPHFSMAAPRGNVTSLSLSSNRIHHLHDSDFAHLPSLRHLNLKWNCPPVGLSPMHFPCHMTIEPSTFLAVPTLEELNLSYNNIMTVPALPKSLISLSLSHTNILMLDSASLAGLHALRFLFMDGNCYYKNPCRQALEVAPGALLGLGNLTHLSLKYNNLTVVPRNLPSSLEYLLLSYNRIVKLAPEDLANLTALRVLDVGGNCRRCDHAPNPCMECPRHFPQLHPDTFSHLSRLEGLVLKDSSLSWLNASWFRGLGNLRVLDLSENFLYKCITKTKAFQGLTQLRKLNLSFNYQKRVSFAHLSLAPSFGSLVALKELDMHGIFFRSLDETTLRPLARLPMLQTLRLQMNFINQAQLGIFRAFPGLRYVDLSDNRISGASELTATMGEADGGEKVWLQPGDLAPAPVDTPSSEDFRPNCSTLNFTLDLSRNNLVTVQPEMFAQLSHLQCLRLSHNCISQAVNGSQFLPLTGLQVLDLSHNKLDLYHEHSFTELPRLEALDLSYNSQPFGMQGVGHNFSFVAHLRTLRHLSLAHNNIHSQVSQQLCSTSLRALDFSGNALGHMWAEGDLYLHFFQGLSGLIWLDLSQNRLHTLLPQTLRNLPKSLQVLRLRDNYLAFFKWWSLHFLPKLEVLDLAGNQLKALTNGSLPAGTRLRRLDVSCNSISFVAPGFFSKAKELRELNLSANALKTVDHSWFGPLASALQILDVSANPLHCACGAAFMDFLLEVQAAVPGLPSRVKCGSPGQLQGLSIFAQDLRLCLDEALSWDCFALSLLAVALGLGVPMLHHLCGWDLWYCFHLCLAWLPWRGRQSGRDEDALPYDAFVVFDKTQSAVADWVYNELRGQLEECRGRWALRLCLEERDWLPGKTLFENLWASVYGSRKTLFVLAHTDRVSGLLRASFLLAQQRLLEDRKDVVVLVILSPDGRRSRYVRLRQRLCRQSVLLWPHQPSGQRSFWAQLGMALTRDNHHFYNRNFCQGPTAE

[4] = biological target: Cytochrome P450 3A4 (Homo sapiens, UniProt P08684); test: Inhibition of CYP3A4 (unknown origin); format: ADME
Chain of Cytochrome P450 3A4 (P08684 whole entry): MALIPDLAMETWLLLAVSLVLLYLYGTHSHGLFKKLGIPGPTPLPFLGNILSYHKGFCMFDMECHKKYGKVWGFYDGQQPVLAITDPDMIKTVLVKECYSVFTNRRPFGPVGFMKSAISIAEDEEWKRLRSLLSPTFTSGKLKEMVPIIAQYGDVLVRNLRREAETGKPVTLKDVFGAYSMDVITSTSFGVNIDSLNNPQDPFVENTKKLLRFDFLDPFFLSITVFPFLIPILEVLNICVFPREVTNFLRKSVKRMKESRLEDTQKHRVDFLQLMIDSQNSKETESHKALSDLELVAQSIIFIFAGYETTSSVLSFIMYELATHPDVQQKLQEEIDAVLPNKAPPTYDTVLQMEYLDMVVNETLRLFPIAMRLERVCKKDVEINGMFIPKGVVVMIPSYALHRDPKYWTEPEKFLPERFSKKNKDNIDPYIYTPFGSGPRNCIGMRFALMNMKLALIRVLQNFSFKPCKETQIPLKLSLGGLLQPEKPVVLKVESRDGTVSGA

[5] = biological target: T3, Toll-like receptor 7 (Homo sapiens, UniProt Q9NYK1); test: Antagonist activity at TLR7 in human PBMC assessed as inhibition of DOTAP-ssRNA40 induced IFNalpha production preincubated for 30 mins followed by ssRNA40 addition measured after 20 hrs by alphaLISA; format: cell-based
T3 sequence (Q9NYK1 whole entry): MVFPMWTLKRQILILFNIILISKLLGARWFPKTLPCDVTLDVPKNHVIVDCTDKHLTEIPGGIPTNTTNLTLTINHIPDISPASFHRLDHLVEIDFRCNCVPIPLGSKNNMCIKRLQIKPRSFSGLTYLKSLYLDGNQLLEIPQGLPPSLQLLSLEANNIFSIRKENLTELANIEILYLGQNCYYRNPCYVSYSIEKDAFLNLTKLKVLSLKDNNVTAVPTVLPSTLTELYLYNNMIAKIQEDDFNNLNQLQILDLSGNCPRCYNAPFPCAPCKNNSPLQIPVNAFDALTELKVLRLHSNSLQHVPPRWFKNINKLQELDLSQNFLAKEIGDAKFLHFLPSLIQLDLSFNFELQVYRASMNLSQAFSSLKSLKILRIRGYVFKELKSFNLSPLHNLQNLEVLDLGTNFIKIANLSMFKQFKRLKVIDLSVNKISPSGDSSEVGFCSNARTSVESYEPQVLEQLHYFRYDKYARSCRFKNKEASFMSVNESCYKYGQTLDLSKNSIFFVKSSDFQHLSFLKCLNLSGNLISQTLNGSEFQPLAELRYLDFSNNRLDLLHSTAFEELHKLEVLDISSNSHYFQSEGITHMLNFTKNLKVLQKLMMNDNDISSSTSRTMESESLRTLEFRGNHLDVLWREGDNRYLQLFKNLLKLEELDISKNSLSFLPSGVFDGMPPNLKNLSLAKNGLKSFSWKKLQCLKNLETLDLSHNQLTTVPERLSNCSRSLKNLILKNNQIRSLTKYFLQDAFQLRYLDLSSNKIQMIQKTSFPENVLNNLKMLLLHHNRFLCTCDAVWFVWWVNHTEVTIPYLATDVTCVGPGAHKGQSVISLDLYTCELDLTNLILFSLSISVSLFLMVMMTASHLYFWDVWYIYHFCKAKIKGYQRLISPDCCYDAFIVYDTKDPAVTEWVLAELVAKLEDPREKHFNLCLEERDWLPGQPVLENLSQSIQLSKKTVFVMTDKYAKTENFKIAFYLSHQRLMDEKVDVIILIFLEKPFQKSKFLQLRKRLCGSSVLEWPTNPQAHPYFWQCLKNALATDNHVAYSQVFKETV

[6] = biological target: T1, Toll-like receptor 8; test: biochemical; remark: listed apart in the source
Description: Binding affinity to human TLR8 extracellular domain (27 to 827 residues) expressed in Drosophila S2 cells by fluorescence polarization assay

Row | pIC50 [3] | Structure (SMILES) | other results
1 | – | Cc1cc(-c2ccnc3[nH]ncc23)cnc1OCC12CCC(N)(CC1)CC2 | pIC50 [1]: 7.17
2 | 5.14 | Cc1cc(=O)n(C)cc1-c1cc(C)c2nn(C3CCNCC3)cc2c1 | pIC50 [2]: < 5.38
3 | < 5.00 | Cc1cc(-c2ccc(=O)n(C)c2C)cc2cn(C3CCNCC3)nc12 | pIC50 [2]: < 5.00; pIC50 [4]: < 4.70
4 | < 5.00 | Cc1cc(-c2ccc(=O)n(C)c2)cc2cnc(N3CCN(C(C)C)CC3)nc12 | pIC50 [5]: < 5.00
5 | 6.70 | Cc1cc(-c2cc(C)c3nn(C4CCNCC4)cc3c2)cn(C)c1=O | –
6 | 5.70 | Cc1cc(-c2ccc(=O)n(C)c2)cc2cn(C3CCNCC3)nc12 | –
7 | – | CC[N+]1=C(/C=C/C=C/C=C2/N(CCCCCC(=O)NC34CCC(COc5ncc(-c6ccnc7[nH]ncc67)cc5C)(CC3)CC4)c3ccc(S(=O)(=O)O)cc3C2(C)C)C(C)(C)c2cc(S(=O)(=O)O)ccc21 | pKd [6]: 7.19
8 | 5.66 | Cn1cc(-c2ccc3nc(N4CCN(C5CCC5)CC4)ncc3c2)ccc1=O | –
